For 1 molecule, solubility results are on record in patent US20100216848A1, “LIQUID PHARMACEUTICAL COMPOSITIONS FOR PARENTERAL ADMINISTRATION OF A SUBSTITUTED AMIDE” (priority 2007, published 2010).

Data set [1] is described as follows: Solubility of Compound I anhydrous Polymorph B in various liquid vehicles (suspension equilibrated at least 24 hours, filtered, HPLC). Type of data set: physicochemical. Particulars: aqueous with cosolvent or surfactant or cyclodextrin, thermodynamic from solid. The procedure: Solubility determinations were carried out at room temperature unless otherwise specified. Solubility of N-[1S,2S]-3-(4-chlorophenyl)-2-(3-cyanophenyl)-1-methylpropyl]-2-methyl-2-{[5-trifluoromethyl]pyridine-2-yl}oxy}propanamide (Compound I) as anhydrous unsolvated Polymorph B (such as prepared in Preparatory Example 2) was determined by preparing a suspension of anhydrous Polymorph B of Compound I in the solvent system. After equilibration for at least 24 hours, the suspension was filtered and the supernatant was analyzed by HPLC. Chromatography was performed on either a Vydac C18 300 Å 250×4.6 mm 5 μm particle size with in-line Phenomenex Security Guard w/C18 cartridge or on a Polaris C18-Ether columns or on a Polaris C8-Ether columns using 0.1% phosphoric acid in combination with methanol or acetonitrile depending on HPLC conditions. The compound was detected at 220 and 272 nm wavelength and assayed using standard curves. The results are presented below in Table 1, calculated based on mg/g vehicle.

A short description of data set [2]: Aqueous solubility of Compound I. Particulars: water. The format is physicochemical.

A word on the solubility: it is the concentration that dissolves in the medium under given conditions. On to `C[C@H](NC(=O)C(C)(C)Oc1ccc(C(F)(F)F)cn1)[C@@H](Cc1ccc(Cl)cc1)c1cccc(C#N)c1` [Compound I, N-[1S,2S]-3-[(4-chlorophenyl)-2-(3-cyanophenyl)-1-methylpropyl]-2-methyl-2-{[(5-trifluoromethyl)pyridine-2-yl]oxy}propanamide], for which the solubility in data set [1] (40% H2O, 35% Captisol, 15% glycerol, 10% EtOH, 40% H20, room temperature) was 20 µg/mL; in data set [1] (50% H2O, 25% PG, 25% PEG300, 50% H20, room temperature), 70 µg/mL; in data set [1] (90% H2O, 10% glycerol, 90% H20, room temperature), less than 1 µg/mL; in data set [1] (94.5% H2O, 0.5% Tween80, 5% EtOH, 94.5% H20, room temperature), 80 µg/mL; in data set [1] (95.5% H2O, 0.5% Tween80, 95.5% H20, room temperature), 80 µg/mL; in data set [1] (97.5% H2O, 2.5% Tween80, 97.5% H20, room temperature), 400 µg/mL. Besides, the solubility in data set [1] (99.75% H2O, 0.25% Tween80, 99.75% H20, room temperature) is 40 µg/mL; in data set [1] (0.5% Tween80, 95.5% Saline, room temperature), 80 µg/mL; in data set [1] (10% EtOH, 90% H2O, room temperature) it was less than 1 µg/mL; in data set [1] (15% glycerol, 10% EtOH, 75% H2O, room temperature), less than 1 µg/mL; in data set [1] (25% PEG400, 75% H2O, room temperature), 4 µg/mL; in data set [1] (35% hydroxypropyl beta cyclodextrin, 18% glycerol, 10% EtOH, 37% H20, room temperature), 40 µg/mL. In data set [2], this molecule showed a solubility of less than 0.4 µg/mL.
